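Five compound concentrations were applied to cells in 96-well plates for 48 hours; endpoints were derived by simple linear interpolation of the resulting dose-response curve. Abbreviation: GI50, concentration required for 50% inhibition of growth. TGI is the concentration that stops growth completely.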
Experiments:
Assay in all cases: growth of human tumour cells (NCI), 48 h
[1] = test system: RPMI-8226 leukemia
[2] = test system: HOP-92 NSCLC
[3] = test system: SK-MEL-2 melanoma
[4] = test system: TK-10 renal
[5] = test system: UACC-257 melanoma
[6] = test system: NCI-H522 lung
[7] = test system: OVCAR-5 ovarian
[8] = test system: SK-MEL-28 melanoma
[9] = test system: COLO 205 colon
[10] = test system: SF-539 CNS
[11] = test system: SF-268 CNS
[12] = test system: HS 578T breast
[13] = test system: CCRF-CEM leukemia
[14] = test system: SN12C renal
[15] = test system: IGROV1 ovarian
[16] = test system: PC-3 prostate
[17] = test system: BT-549 breast
[18] = test system: HCT-116 colon
[19] = test system: DU-145 prostate
[20] = test system: NCI-H460 lung
[21] = test system: SK-OV-3 ovarian
[22] = test system: MDA-MB-435
[23] = test system: K-562 leukemia
[24] = test system: A498 renal
[25] = test system: OVCAR-4 ovarian
[26] = test system: T-47D breast
[27] = test system: M14 melanoma
[28] = test system: HOP-62 NSCLC
[29] = test system: KM12 colon
[30] = test system: A549 NSCLC
[31] = test system: UACC-62 melanoma
[32] = test system: 786-0 renal
[33] = test system: MCF7 breast
[34] = test system: SF-295 CNS
[35] = test system: UO-31 renal
[36] = test system: MALME-3M melanoma
[37] = test system: MDA-MB-231 breast
[38] = test system: U251 CNS
[39] = test system: NCI/ADR-RES ovarian
[40] = test system: SNB-75 CNS
[41] = test system: OVCAR-8 ovarian
[42] = test system: SK-MEL-5 melanoma
[43] = test system: SW-620 colon
[44] = test system: MOLT-4 leukemia
[45] = test system: SR leukemia
[46] = test system: RXF 393 renal
[47] = test system: HL-60(TB) leukemia
[48] = test system: NCI-H226 lung
[49] = test system: LOX IMVI melanoma
[50] = test system: HT29 colon
[51] = test system: HCT-15 colon
[52] = test system: SNB-19 CNS
[53] = test system: NCI-H23 lung
[54] = test system: OVCAR-3 ovarian
[55] = test system: HCC-2998 colon
[56] = test system: EKVX NSCLC
[57] = test system: ACHN renal

Fc1ccc(NC(c2ccc(F)cc2)C2CCN(CCCCc3ccccc3)CC2)cc1 (centres undefined)
GI50 [1]: 2.17 µM
TGI [1]: 4.78 µM
GI50 [2]: 1.31 µM
TGI [2]: 3.41 µM
GI50 [3]: 1.81 µM
TGI [3]: 3.54 µM
GI50 [4]: 2.07 µM
TGI [4]: 5.34 µM
GI50 [5]: 1.97 µM
TGI [5]: 3.79 µM
GI50 [6]: 1.65 µM
TGI [6]: 3.47 µM
GI50 [7]: 1.7 µM
TGI [7]: 4.04 µM
GI50 [8]: 1.76 µM
TGI [8]: 3.28 µM
GI50 [9]: 1.6 µM
TGI [9]: 3.2 µM
GI50 [10]: 1.71 µM
TGI [10]: 3.1 µM
GI50 [11]: 1.68 µM
TGI [11]: 3.83 µM
GI50 [12]: 1.7 µM
TGI [12]: 3.9 µM
GI50 [13]: 3.62 µM
TGI [13]: 9.12 µM
GI50 [14]: 1.77 µM
TGI [14]: 3.37 µM
GI50 [15]: 2.18 µM
TGI [15]: 5.17 µM
GI50 [16]: 1.82 µM
TGI [16]: 3.76 µM
GI50 [17]: 1.55 µM
TGI [17]: 2.97 µM
GI50 [18]: 1.41 µM
TGI [18]: 2.75 µM
GI50 [19]: 1.77 µM
TGI [19]: 3.86 µM
GI50 [20]: 1.71 µM
TGI [20]: 3.09 µM
GI50 [21]: 1.86 µM
TGI [21]: 3.94 µM
GI50 [22]: 1.6 µM
TGI [22]: 2.95 µM
GI50 [23]: 2.07 µM
TGI [23]: 4.96 µM
GI50 [24]: 0.671 µM
TGI [24]: 2.21 µM
GI50 [25]: 1.41 µM
TGI [25]: 3.22 µM
GI50 [26]: 1.65 µM
TGI [26]: 3.62 µM
GI50 [27]: 1.59 µM
TGI [27]: 3.2 µM
GI50 [28]: 1.45 µM
TGI [28]: 3 µM
GI50 [29]: 1.85 µM
TGI [29]: 3.67 µM
GI50 [30]: 1.91 µM
TGI [30]: 3.73 µM
GI50 [31]: 1.83 µM
TGI [31]: 3.46 µM
GI50 [32]: 1.47 µM
TGI [32]: 2.84 µM
GI50 [33]: 1.64 µM
TGI [33]: 3.24 µM
GI50 [34]: 1.49 µM
TGI [34]: 2.86 µM
GI50 [35]: 1.08 µM
TGI [35]: 2.43 µM
GI50 [36]: 1.4 µM
TGI [36]: 2.88 µM
GI50 [37]: 1.58 µM
TGI [37]: 3.13 µM
GI50 [38]: 1.67 µM
TGI [38]: 3.06 µM
GI50 [39]: 1.7 µM
TGI [39]: 3.45 µM
GI50 [40]: 1.11 µM
TGI [40]: 2.43 µM
GI50 [41]: 2.05 µM
TGI [41]: 4.19 µM
GI50 [42]: 1.63 µM
TGI [42]: 3.1 µM
GI50 [43]: 1.26 µM
TGI [43]: 2.57 µM
GI50 [44]: 1.74 µM
TGI [44]: 4.37 µM
GI50 [45]: 1.57 µM
TGI [45]: 3.89 µM
GI50 [46]: 1.72 µM
TGI [46]: 3.17 µM
GI50 [47]: 1.24 µM
TGI [47]: 3.54 µM
GI50 [48]: 1.78 µM
TGI [48]: 3.6 µM
GI50 [49]: 1.55 µM
TGI [49]: 2.89 µM
GI50 [50]: 1.4 µM
TGI [50]: 3.03 µM
GI50 [51]: 1.45 µM
TGI [51]: 2.89 µM
GI50 [52]: 1.99 µM
TGI [52]: 4.9 µM
GI50 [53]: 1.78 µM
TGI [53]: 3.86 µM
GI50 [54]: 1.57 µM
TGI [54]: 2.91 µM
GI50 [55]: 1.76 µM
TGI [55]: 3.31 µM
GI50 [56]: 1.7 µM
TGI [56]: 4.42 µM
GI50 [57]: 1.68 µM
TGI [57]: 3.05 µM
